Measured values published in US20110281810A1, “Composition” (Cognis IP Management GmbH, priority 2010, published 2011).
Converted amounts (≈) assume the structure as drawn. One block for each compound: values may come before it.

Assays:
physchem [1] = assay: physchem
Protocol: The stated products and synergistic mixtures were investigated for their usefulness in pharmaceutical formulations and in particular for solubility improvement for sparingly soluble model substances.
The effect of the stated new solubilizers on the boost to solubility of these active ingredients was investigated and was compared with solubilizers already established for pharmaceutical applications. For this purpose, solution isotherms were recorded, and can be used to ascertain the extent of dissolution mediated by the various solubilizers. The optimum is a sharp increase in drug concentration through the use of small amounts of solubilizer, since increasing concentration may also be accompanied by an increase in the unwanted effects.
The solubilizers investigated were compared with solubilizers already established for pharmaceutical formulations, such as TEGO® SMO 80 V (Polysorbat 80) from Evonik, Solutol® HS 15 from BASF, Ludwigshafen, and Eumulgin® RO 35 PH and Speziol® TPGS Pharma (Tocophersolan) from Cognis, Monheim.

physchem [2] = details: aqueous with cosolvent or surfactant or cyclodextrin
Source text: (§1) Additionally investigated was the solubilization of a homologous series of cinnamic acid derivatives.

[3] = Solubilization of a homologous series of cinnamic acid derivatives in water by solubilizers; details: aqueous with cosolvent or surfactant or cyclodextrin
Source text: as §1

[4] = aqueous with cosolvent or surfactant or cyclodextrin, Solubility with Eumulgin RO35
[5] = aqueous with cosolvent or surfactant or cyclodextrin, Solubility with TEGO SMO 80V
[6] = water, Solubility, no solubilizer
[7] = Solubility (MW) with Eumulgin HPS
[8] = Solubility (MW) with Eumulgin L
[9] = Solubility (MW) with Eumulgin O10
[10] = Solubility (MW) with Eumulgin RO35
[11] = Solubility (MW) with Speziol TPGS
[12] = Solubility (MW) with Tego SMO 80V
[13] = Eumulgin ES solution in water, Solubility (MW) with Eumulgin ES, water, solubilizer Eumulgin ES
[14] = Eumulgin HPS solution in water, Solubility (MW) with Eumulgin HPS, water, solubilizer Eumulgin HPS
[15] = Eumulgin L solution in water, Solubility (MW) with Eumulgin L, water, solubilizer Eumulgin L
[16] = Eumulgin O10 solution in water, Solubility (MW) with Eumulgin O10, water, solubilizer Eumulgin O10
[17] = Eumulgin RO35 solution in water, Solubility (MW) with Eumulgin RO35, water, solubilizer Eumulgin RO35
[18] = Speziol TPGS solution in water, Solubility (MW) with Speziol TPGS, water, solubilizer Speziol TPGS
[19] = Tego SMO 80V solution in water, Solubility (MW) with Tego SMO 80V, water, solubilizer Tego SMO 80V

- Solubility with Eumulgin ES (physchem [1]): 9 µg/mL
- Solubility with Eumulgin HPS (physchem [1]): 0.008 mg/m1
- Solubility with Eumulgin L (physchem [1]): 7 µg/mL
- Solubility with Speziol TPGS (physchem [1]): 8 µg/mL
- solubility (physchem [1]; [4]): 11 µg/mL
- solubility (physchem [1]; [5]): 15 µg/mL
- solubility (physchem [1]; [6]): 1 µg/mL
Structure (SMILES): CCC(C)n1ncn(-c2ccc(N3CCN(c4ccc(OCC5COC(Cn6cncn6)(c6ccc(Cl)cc6Cl)O5)cc4)CC3)cc2)c1=O (centres unmarked) [Itraconazole]

- solubility (physchem [2]; Solubility (MW) with Eumulgin ES): 3200 µg/mL (≈ 12.7 mM)
- solubility (physchem [2]; [7]): 2700 µg/mL (≈ 10.7 mM)
- solubility (physchem [2]; [8]): 2500 µg/mL (≈ 9.91 mM)
- solubility (physchem [2]; [9]): 3700 µg/mL (≈ 14.7 mM)
- solubility (physchem [2]; [10]): 4900 µg/mL (≈ 19.4 mM)
- solubility (physchem [2]; [11]): 2600 µg/mL (≈ 10.3 mM)
- solubility (physchem [2]; [12]): 2500 µg/mL (≈ 9.91 mM)
Structure (SMILES): O=C(C=Cc1ccccc1)OCCc1ccccc1 [Phenethyl cinnamate, phenethyl cinnamate]

- solubility [3, 13]: 3000 µg/mL (≈ 18.5 mM)
- solubility [3, 14]: 11400 µg/mL (≈ 70.3 mM)
- solubility [3, 15]: 9800 µg/mL (≈ 60.4 mM)
- solubility [3, 16]: 9100 µg/mL (≈ 56.1 mM)
- solubility [3, 17]: 21500 µg/mL (≈ 133 mM)
- solubility [3, 18]: 7900 µg/mL (≈ 48.7 mM)
- solubility [3, 19]: 9600 µg/mL (≈ 59.2 mM)
Structure (SMILES): COC(=O)C=Cc1ccccc1 [Methyl cinnamate, methyl cinnamate]

- solubility (physchem [1]; aqueous with cosolvent or surfactant or cyclodextrin, Solubility with Eumulgin HPS): 1230 µg/mL
- solubility (physchem [1]; aqueous with cosolvent or surfactant or cyclodextrin, Solubility with Eumulgin L): 1070 µg/mL
- solubility (physchem [1]; [4]): 1660 µg/mL
- solubility (physchem [1]; aqueous with cosolvent or surfactant or cyclodextrin, Solubility with Speziol TPGS): 1720 µg/mL
- solubility (physchem [1]; [5]): 1700 µg/mL
- solubility (physchem [1]; [6]): 459 µg/mL
Structure (SMILES): CC[C@H]1OC(=O)[C@H](C)[C@@H](O[C@H]2C[C@@](C)(OC)[C@@H](O)[C@H](C)O2)[C@H](C)[C@@H](O[C@@H]2O[C@H](C)C[C@H](N(C)C)[C@H]2O)[C@](C)(O)C[C@@H](C)C(=O)[C@H](C)[C@@H](O)[C@]1(C)O [Erythromycin]

- solubility (physchem [2]; [7]): 23600 µg/mL (≈ 134 mM)
- solubility (physchem [2]; [8]): 14700 µg/mL (≈ 83.4 mM)
- solubility (physchem [2]; [9]): 47000 µg/mL (≈ 267 mM)
- solubility (physchem [2]; [10]): 68000 µg/mL (≈ 386 mM)
- solubility (physchem [2]; [11]): 42300 µg/mL (≈ 240 mM)
- solubility (physchem [2]; [12]): 96400 µg/mL (≈ 547 mM)
Structure (SMILES): CCOC(=O)C=Cc1ccccc1 [Ethyl cinnamate, ethyl cinnamate]

- solubility [3, 13]: 3400 µg/mL (≈ 17.9 mM)
- solubility [3, 14]: 25700 µg/mL (≈ 135 mM)
- solubility [3, 15]: 15200 µg/mL (≈ 79.9 mM)
- solubility [3, 16]: 32600 µg/mL (≈ 171 mM)
- solubility [3, 17]: 50900 µg/mL (≈ 268 mM)
- solubility [3, 18]: 21000 µg/mL (≈ 110 mM)
- solubility [3, 19]: 52500 µg/mL (≈ 276 mM)
Structure (SMILES): CC(C)OC(=O)C=Cc1ccccc1 [Isopropyl cinnamate, isopropyl cinnamate]

- solubility [3, 13]: 1200 µg/mL (≈ 5.87 mM)
- solubility [3, 14]: 29000 µg/mL (≈ 142 mM)
- solubility [3, 15]: 41000 µg/mL (≈ 201 mM)
- solubility [3, 16]: 65900 µg/mL (≈ 323 mM)
- solubility [3, 17]: 54200 µg/mL (≈ 265 mM)
- solubility [3, 18]: 23100 µg/mL (≈ 113 mM)
- solubility [3, 19]: 110000 µg/mL (≈ 539 mM)
Structure (SMILES): CC(C)COC(=O)C=Cc1ccccc1 [Isobutyl cinnamate, isobutyl cinnamate]
